According to patent US20170333591A9, “ABSORBENT ARTICLE COMPRISING MALODOR REDUCTION COMPOSITIONS” (The Procter & Gamble Company, priority 2014, published 2017):

Assay: Log of liquid dish neat product liquid-air partition coefficient
Format: physicochemical
Settings: not given

Compound | Comment Code: Log of liquid dish neat product liquid-air partition coefficient
COc1ccc(COC(C)=O)cc1 [Material 664] | K (Log of liquid dish neat product liquid-air partition coefficient greater than or equal to 7)
COc1ccc(COC=O)cc1 [Material 665] | K (Log of liquid dish neat product liquid-air partition coefficient greater than or equal to 7)
CCCCCOC(=O)c1ccccc1 [Material 672] | K (Log of liquid dish neat product liquid-air partition coefficient greater than or equal to 7)
C[C@@H]1CC[C@H]2C(C)(C)[C@H]3C[C@@]12CC1OC(C)(C)OC13C (stereo partly shown) [Material 674] | K (Log of liquid dish neat product liquid-air partition coefficient greater than or equal to 7)
CC1C(C)(C)C2CCC3CC(C)(C)OC3C2C1(C)C (stereo not shown) [Material 679] | K (Log of liquid dish neat product liquid-air partition coefficient greater than or equal to 7)
CC1C(C)(C)C2CCC3CC(C)(C)OC3C2C1(C)C (stereo not shown) [Material 680] | K (Log of liquid dish neat product liquid-air partition coefficient greater than or equal to 7)
CC(C)=C1CCC2=CC(=O)CC(C)C2(C)C1 (stereo not shown) [Material 684] | K (Log of liquid dish neat product liquid-air partition coefficient greater than or equal to 7)
CC(=O)OC(C)(C)C1CC=C(C)CC1 (stereo not shown) [Material 687] | K (Log of liquid dish neat product liquid-air partition coefficient greater than or equal to 7)
CC(=CCCC1(C)C2CC3C(C2)C31C)CO (stereo not shown) [Material 694] | K (Log of liquid dish neat product liquid-air partition coefficient greater than or equal to 7)
CC(O)CCC1CCCCC1 (stereo not shown) [Material 699] | K (Log of liquid dish neat product liquid-air partition coefficient greater than or equal to 7)
CC(C=O)=Cc1ccccc1 [Material 701] | K (Log of liquid dish neat product liquid-air partition coefficient greater than or equal to 7)
CC(=O)C(C)=CC1C(C)=CCCC1(C)C (stereo not shown) [Material 703] | K (Log of liquid dish neat product liquid-air partition coefficient greater than or equal to 7)
CC1=CCCC2(C)CCC(C(C)(C)O)CC12 (stereo not shown) [Material 712] | K (Log of liquid dish neat product liquid-air partition coefficient greater than or equal to 7)
CC1=CCCC2(C)CCC3CC12OC3(C)C (stereo not shown) [Material 726] | K (Log of liquid dish neat product liquid-air partition coefficient greater than or equal to 7)
C=CCOC(=O)COc1ccccc1 [Material 743] | K (Log of liquid dish neat product liquid-air partition coefficient greater than or equal to 7)
C=CCOCCc1ccccc1 [Material 744] | K (Log of liquid dish neat product liquid-air partition coefficient greater than or equal to 7)
CCC(=O)N(CC)c1cccc(C)c1 [Material 755] | K (Log of liquid dish neat product liquid-air partition coefficient greater than or equal to 7)
COc1ccc(C(C)=O)cc1 [Material 761] | K (Log of liquid dish neat product liquid-air partition coefficient greater than or equal to 7)
CC1=CCCC2(C)CCC(C(C)(C)O)CC12 (stereo not shown) [Material 775] | K (Log of liquid dish neat product liquid-air partition coefficient greater than or equal to 7)

Same assay, conditions: code letters K/L of the Comment Code

Compound | Log of liquid dish neat product liquid-air partition coefficient (Comment Code)
CCCCCOC(=O)C=Cc1ccccc1 [Material 671] | K (Log of liquid dish neat product liquid-air partition coefficient greater than or equal to 7)
C[C@@H]1CC[C@H]2C(C)(C)[C@H]3C[C@@]12CC1OC(C)(C)OC13C (stereo partly shown) [Material 674] | K (Log of liquid dish neat product liquid-air partition coefficient greater than or equal to 7)
CC1(O)CCC2=C(CCCC2(C)C)C1 (stereo not shown) [Material 675] | K (Log of liquid dish neat product liquid-air partition coefficient greater than or equal to 7)
CC1(O)CCC2=C(CCCC2(C)C)C1 (stereo not shown) [Material 676] | K (Log of liquid dish neat product liquid-air partition coefficient greater than or equal to 7)
CCC(O)COC1CCCCC1C(C)(C)C (stereo not shown) [Material 677] | K (Log of liquid dish neat product liquid-air partition coefficient greater than or equal to 7)
CC1C(C)(C)C2CCC3CC(C)(C)OC3C2C1(C)C (stereo not shown) [Material 679] | K (Log of liquid dish neat product liquid-air partition coefficient greater than or equal to 7)
CC1C(C)(C)C2CCC3CC(C)(C)OC3C2C1(C)C (stereo not shown) [Material 680] | K (Log of liquid dish neat product liquid-air partition coefficient greater than or equal to 7)
CC(C)=C1CCC2=CC(=O)CC(C)C2(C)C1 (stereo not shown) [Material 684] | K (Log of liquid dish neat product liquid-air partition coefficient greater than or equal to 7)
CCC(=O)OC(C)(C)C1CC=C(C)CC1 (stereo not shown) [Material 686] | K (Log of liquid dish neat product liquid-air partition coefficient greater than or equal to 7)
C=CC(C)=CCC=C(C)CCC=C(C)C=O [Material 691] | K (Log of liquid dish neat product liquid-air partition coefficient greater than or equal to 7)
C=C(C)C1CCC2(C)CCC=C(C)C2C1 (stereo not shown) [Material 692] | K (Log of liquid dish neat product liquid-air partition coefficient greater than or equal to 7)
CC(=CCCC1(C)C2CC3C(C2)C31C)CO (stereo not shown) [Material 694] | K (Log of liquid dish neat product liquid-air partition coefficient greater than or equal to 7)
C=CCCC(=O)C1=CCCC(C)(C)C1 [Material 697] | K (Log of liquid dish neat product liquid-air partition coefficient greater than or equal to 7)
CCC(=O)C=CC1C(C)=CCCC1(C)C (stereo not shown) [Material 700] | K (Log of liquid dish neat product liquid-air partition coefficient greater than or equal to 7)
CC(=O)C=CC1C(C)=CCC(C)C1(C)C (stereo not shown) [Material 704] | K (Log of liquid dish neat product liquid-air partition coefficient greater than or equal to 7)
CC1=CCCC(C)=CCC(C)(C)C=CC1 [Material 706] | K (Log of liquid dish neat product liquid-air partition coefficient greater than or equal to 7)
C=C1CCCC(C)(C)C2C=C(C)CCC12 (stereo not shown) [Material 707] | K (Log of liquid dish neat product liquid-air partition coefficient greater than or equal to 7)
C=CC(C)=CCC=C(C)CCC=C(C)C [Material 710] | K (Log of liquid dish neat product liquid-air partition coefficient greater than or equal to 7)

Compound | Log of liquid dish neat product liquid-air partition coefficient (Comment Code)
CC1=CCCC2(C)CCC(C(C)(C)O)CC12 (stereo not shown) [Material 712] | K (Log of liquid dish neat product liquid-air partition coefficient greater than or equal to 7)
CC(C)=CCCC(C)c1ccc(C)cc1 (stereo not shown) [Material 713] | K (Log of liquid dish neat product liquid-air partition coefficient greater than or equal to 7)
CC1=CC2C(C(C)C)CCC(C)(O)C2CC1 (stereo not shown) [Material 716] | K (Log of liquid dish neat product liquid-air partition coefficient greater than or equal to 7)
CC(C)=CCCC(C)(O)C1CC=C(C)CC1 (stereo not shown) [Material 718] | K (Log of liquid dish neat product liquid-air partition coefficient greater than or equal to 7)
CC(C)=CCC=C(C)C1CC=C(C)CC1 (stereo not shown) [Material 719] | K (Log of liquid dish neat product liquid-air partition coefficient greater than or equal to 7)
CC1=CCCC2(C)CCC3CC12OC3(C)C (stereo not shown) [Material 726] | K (Log of liquid dish neat product liquid-air partition coefficient greater than or equal to 7)
CC(C)=CCCC1=CCC(C)(C=O)CC1 (stereo not shown) [Material 727] | K (Log of liquid dish neat product liquid-air partition coefficient greater than or equal to 7)
CCCC(O)Cc1ccccc1 (stereo not shown) [Material 730] | K (Log of liquid dish neat product liquid-air partition coefficient greater than or equal to 7)
CCC(C)(O)CCc1ccccc1 (stereo not shown) [Material 731] | K (Log of liquid dish neat product liquid-air partition coefficient greater than or equal to 7)
CC(C)CCCC(C)CCCC(C)C=O (stereo not shown) [Material 741] | K (Log of liquid dish neat product liquid-air partition coefficient greater than or equal to 7)
Cc1ccc(CC(C)C=O)cc1 (stereo not shown) [Material 742] | K (Log of liquid dish neat product liquid-air partition coefficient greater than or equal to 7)
C=CCOC(=O)CCC1CCCCC1 [Material 746] | K (Log of liquid dish neat product liquid-air partition coefficient greater than or equal to 7)
C=CCOC(=O)COCCC(C)C [Material 748] | K (Log of liquid dish neat product liquid-air partition coefficient greater than or equal to 7)
CC(C)=CCCC(C)CCCC(C)C=O (stereo not shown) [Material 757] | K (Log of liquid dish neat product liquid-air partition coefficient greater than or equal to 7)
CCCOC(C)OCCc1ccccc1 (stereo not shown) [Material 766] | K (Log of liquid dish neat product liquid-air partition coefficient greater than or equal to 7)
COCCOC(C)OCc1ccccc1 (stereo not shown) [Material 768] | K (Log of liquid dish neat product liquid-air partition coefficient greater than or equal to 7)
C=C(C)C1CCC2(C)CCC=C(C)C2C1 (stereo not shown) [Material 774] | K (Log of liquid dish neat product liquid-air partition coefficient greater than or equal to 7)
CC1=CCCC2(C)CCC(C(C)(C)O)CC12 (stereo not shown) [Material 775] | K (Log of liquid dish neat product liquid-air partition coefficient greater than or equal to 7)
